≈ marks a conversion by molar mass, not a printed value. Where two headings read alike, the source gives them in different places.
Experiments:
[1] = system: Pseudomonas aeruginosa ATCC 9027; test: Disc diffusion method; format: cell-based; details: for zone of inhibition at 250 µM: ATCC9027, 250 µM; for zone of inhibition at 250 µM / zone of inhibition at 500 µM / zone of inhibition at 1000 µM: read-out: Disc diffusion test, inhibitory zone diameter; for zone of inhibition at 500 µM: ATCC9027, 500 µM; for zone of inhibition at 1000 µM: ATCC9027, 1000 µM
Description: (§1) The bacteria employed for evaluation included Acinetobacter baumannii ATCC 1605, Enterococcus faecalis ATCC 49452, Pseudomonas aeruginosa ATCC 9027, and Staphylococcus aureus MRSA ATCC 43300. These strains were sourced from the Molecular Biology and Genetics Laboratory at Erzurum Technical University. They were immersed in Mueller-Hinton Broth (MHB) and then incubated at a temperature of 37 °C for a duration of 16–24 h.
(§2) Bacteria were adjusted to a McFarland standardisation of 0.5, equivalent to a cell density of 1.5 × 10^8/ml, and were then introduced into MHB. Subsequently, a 100 μl volume of this bacterial mixture was spread onto Mueller-Hinton agar plates. Sterile empty discs were then treated with the formulated ureas at concentrations of 1000, 500, and 250 µM. Oflaxin ([…]) and netilmicin ([…]) were used as positive controls, while DMSO served as the negative control. The plates were then placed in an incubator at 37 °C for a period ranging from 24 to 72 h, depending on the optimal conditions. Post incubation, the diameter of the inhibition zones was gauged to determine the antibacterial efficacy. This entire process was replicated three times.

[2] = system: Staphylococcus aureus MRSA ATCC 43300; test: Disc diffusion method; format: cell-based; details: for zone of inhibition at 500 µM / zone of inhibition at 1000 µM / zone of inhibition at 250 µM: Staphylococcus aureus, read-out: Disc diffusion test, inhibitory zone diameter; for Standard antibiotic disc, inhibitory zone diameter: Staphylococcus aureus MRSA
Description: as §1, §2

[3] = system: Pseudomonas aeruginosa ATCC 9027; test: Micro-well dilution assay (MIC); format: cell-based; details: for MIC: ATCC9027
Description: as §1
(§3) The synthesised ureas’ minimum inhibitory concentrations (MICs) against the bacterial samples were ascertained using the microdilution broth technique. Utilising a method of twofold serial dilutions, the ureas were diluted to concentrations spanning from […]. The bacterial turbidity was set to match the 0.5 McFarland standard. In the 96-well plates, each well received 100 μl of MHB and 5 μl of the bacteria being tested. For the negative control, 195 μl of MHB and 5 μl of the bacterial sample were added. The plate was then covered with a sterile seal and allowed to incubate for 24 h at a temperature of 37 °C. Post incubation, the growth of the bacteria was assessed at 600 nm using the Fluoroskan Ascent® FL. The MIC represented the smallest amount of the chemical that effectively halted bacterial growth. This procedure was conducted three times.

[4] = system: Staphylococcus aureus MRSA ATCC 43300; test: Micro-well dilution assay (MIC); format: cell-based
Description: as §1, §3

HeLa cells [5] = test: WST-8 cytotoxicity assay; format: cell-based, human; details: for IC50: Homo sapiens, HeLa cells, 48 h, WST-8, n = 4, read-out: Cytotoxic activity IC50; for SI value (HeLa cells): IC50 PCS-201-012 fibroblasts / IC50 HeLa, n = 4
Description: (§4) The cells in culture were frequently sub-cultured, about 2–3 times weekly, until they reached a confluence of 80–90%. The experiments were organised into seven cell groups as follows: group I served as the control, while groups II through VII were pre-treated with varying dosages of the synthesised ureas (ranging from 12.5 µM to 500 µM). The cytotoxic potential of these ureas was assessed in vitro using the Cell Viability Detection Kit-8 (CVDK-8, Ecotech Biotechnology, Erzurum, Turkey), a method based on WST-8 quantification for human primary dermal fibroblasts and cervical cancer cells. Healthy fibroblast, HeLa, and SH-SY5Y cells were allocated in 96-well plates, with each well containing 5 × 10^3 cells in 100 µL of DMEM:F12 (supplemented with 1% penicillin/streptomycin and 10% FBS). After an overnight growth, these cells were exposed to specified concentrations of the synthesised ureas for a duration of 48 h at 37 °C in a 5% CO2 atmosphere. Cisplatin acted as the positive control with concentration gradients of 0–250 µM for HeLa cells and 0–20 µM for the SH-SY5Y cells. Post incubation, in sterile, dimly lit conditions, 10% WST-8 solution was added to every well and further incubated at 37 °C within 5% CO2 for another 3–4 h. The optical density of the 96-well plate was gauged at a 450 nm wavelength using a spectrophotometer (BioTek, EPOCH, Santa Clara, CA). The control group’s main purpose was to measure the absorbance of just the cells and the growth medium.

SH-SY5Y cells [6] = test: WST-8 cytotoxicity assay; format: cell-based, human; details: for IC50: SH-SY5Y, 48 h, WST-8, n = 4, read-out: Cytotoxic activity IC50; for SI value (SH-SY5Y cells): IC50 PCS-201-012 fibroblasts / IC50 SH-SY5Y, n = 4
Description: as §4

WST-8 cytotoxicity assay = format: cell-based; details: human, PCS-201-012 healthy primary dermal fibroblast cells, PCS-201-012 healthy fibroblast cells, WST-8, n = 4, read-out: Cytotoxic activity IC50
Description: as §4

[7] = system: Acinetobacter baumannii ATCC 1605; test: Disc diffusion method; format: cell-based; details: for zone of inhibition at 250 µM: ATCC1605, 250 µM; for zone of inhibition at 250 µM / zone of inhibition at 500 µM / zone of inhibition at 1000 µM: read-out: Disc diffusion test, inhibitory zone diameter; for zone of inhibition at 500 µM: ATCC1605, 500 µM; for zone of inhibition at 1000 µM: ATCC1605, 1000 µM
Description: as §1, §2

[8] = system: Enterococcus faecalis ATCC 49452; test: Disc diffusion method; format: cell-based; details: for zone of inhibition at 500 µM: ATCC49452, 500 µM; for zone of inhibition at 1000 µM: ATCC49452, 1000 µM
Description: as §1, §2

[9] = system: Acinetobacter baumannii ATCC 1605; test: Micro-well dilution assay (MIC); format: cell-based; details: for MIC: ATCC1605
Description: as §1, §3

[10] = system: Enterococcus faecalis ATCC 49452; test: Micro-well dilution assay (MIC); format: cell-based; details: for MIC: ATCC49452
Description: as §1, §3

SH-SY5Y cells [11] = details: read-out: Cytotoxic activity IC50, melphalan control; cited from earlier work
HeLa cells [12] = details: read-out: Cytotoxic activity IC50, melphalan control; cited from earlier work
[13] = read-out: Disc diffusion test, inhibitory zone diameter

| Structure (SMILES) | zone of inhibition at 250 µM [1] | zone of inhibition at 500 µM [1] | zone of inhibition at 1000 µM [1] | zone of inhibition at 500 µM [2] | zone of inhibition at 1000 µM [2] | MIC [3] | MIC [4] | IC50 (HeLa cells [5]) | SI value (HeLa cells) (HeLa cells [5]) | IC50 (SH-SY5Y cells [6]; Homo sapiens) | SI value (SH-SY5Y cells) (SH-SY5Y cells [6]) | IC50 at 48 h (WST-8 cytotoxicity assay) | melting point | zone of inhibition at 250 µM [7] | zone of inhibition at 500 µM [7] | zone of inhibition at 1000 µM [7] | zone of inhibition at 500 µM [8, 13] | zone of inhibition at 1000 µM [8, 13] | zone of inhibition at 250 µM [2] | MIC [9] | further results |
| --- | --- | --- | --- | --- | --- | --- | --- | --- | --- | --- | --- | --- | --- | --- | --- | --- | --- | --- | --- | --- | --- |
| COc1ccccc1CCNC(=O)NC1CCCc2c(OC)cccc21 (stereo not drawn) [Compound 15, 1-(5-Methoxy-1,2,3,4-tetrahydronaphthalen-1-yl)-3-(2-methoxyphenethyl)urea] | 5 mm | 5 mm | 5 mm | 5 mm | 6 mm | 15.6 µM (≈ 5.54 µg/mL) | 15.6 µM (≈ 5.54 µg/mL) | 142 µM | 1.58 | 8.93 µM | 25.26 | 226 µM | 174 to 176 °C | – | – | – | – | – | – | – | IC50 (SH-SY5Y cells [6]): 8.9 µM |
| COc1cccc(CCNC(=O)NC2CCCc3c(OC)cccc32)c1 (stereo not drawn) [Compound 16, 1-(5-Methoxy-1,2,3,4-tetrahydronaphthalen-1-yl)-3-(3-methoxyphenethyl)urea] | 7 mm | 8 mm | 10 mm | 6 mm | 13 mm | 7.81 µM (≈ 2.77 µg/mL) | 7.81 µM (≈ 2.77 µg/mL) | 32.4 µM | 15.4 | 19.1 µM | 26.10 | > 500 µM | 155 to 157 °C | 5 mm | 10 mm | 13 mm | 6 mm | 7 mm | 5 mm | 7.81 µM (≈ 2.77 µg/mL) | MIC [10]: 3.9 µM (≈ 1.38 µg/mL) |
| COc1ccc(CCNC(=O)NC2CCCc3c(OC)cccc32)cc1OC (stereo not drawn) [Compound 17, 1-(3,4-Dimethoxyphenethyl)-3-(5-methoxy-1,2,3,4-tetrahydronaphthalen-1-yl)urea] | 7 mm | 10 mm | 10 mm | 13 mm | 14 mm | 7.81 µM (≈ 3 µg/mL) | 7.81 µM (≈ 3 µg/mL) | 251 µM | 1.51 | 9.7 µM | 39.08 | 380 µM | 168 to 170 °C | 6 mm | 8 mm | 15 mm | 7 mm | 10 mm | 8 mm | 7.81 µM (≈ 3 µg/mL) | MIC [10]: 0.97 µM (≈ 0.373 µg/mL) |
| COc1ccc(CCNC(=O)NC2CCCc3c(OC)cccc32)cc1 (stereo not drawn) [Compound 18, 1-(5-Methoxy-1,2,3,4-tetrahydronaphthalen-1-yl)-3-(4-methoxyphenethyl)urea] | 9 mm | 10 mm | 15 mm | 12 mm | 15 mm | 3.9 µM (≈ 1.38 µg/mL) | 3.9 µM (≈ 1.38 µg/mL) | 364 µM | 1.02 | 10.2 µM | 36.72 | 374 µM | 150 to 152 °C | 6 mm | 10 mm | 16 mm | 7 mm | 13 mm | 5 mm | 7.81 µM (≈ 2.77 µg/mL) | zone of inhibition at 250 µM ([8]; ATCC49452, 250 µM, read-out: Disc diffusion test, inhibitory zone diameter): 5 mm; MIC [10]: 0.97 µM (≈ 0.344 µg/mL) |
| N[C@@H](Cc1ccc(N(CCCl)CCCl)cc1)C(=O)O [Melphalan, melphalan] | – | – | – | – | – | – | – | – | – | – | – | – | – | – | – | – | – | – | – | – | IC50 (SH-SY5Y cells [11]): 2.2 µM; IC50 (HeLa cells [12]): 61 µM |
| CCN[C@@H]1C[C@H](N)[C@@H](O[C@H]2OC(CN)=CC[C@H]2N)[C@H](O)[C@H]1O[C@H]1OC[C@](C)(O)[C@H](NC)[C@H]1O [NET30, netilmycin, reference compound] | – | – | – | – | – | – | – | – | – | – | – | – | – | – | – | – | – | – | – | – | Standard antibiotic disc, inhibitory zone diameter ([7]; 30 μg/disc): 13 mm; Standard antibiotic disc, inhibitory zone diameter ([8]; 30 μg/disc): 9 mm; Standard antibiotic disc, inhibitory zone diameter ([1]; 30 μg/disc): 16 mm; Standard antibiotic disc, inhibitory zone diameter ([2]; 30 μg/disc): 21 mm; MIC of standard antibiotics [9]: 4 µg/mL; MIC of standard antibiotics [10]: 32 µg/mL; MIC of standard antibiotics [3]: 4 µg/mL; MIC of standard antibiotics [4]: 0.8 µg/mL |
| CC1COc2c(N3CCN(C)CC3)c(F)cc3c(=O)c(C(=O)O)cn1c23 (stereo not drawn) [OFX, ofloxacin, reference compound] | – | – | – | – | – | – | – | – | – | – | – | – | – | – | – | – | – | – | – | – | Standard antibiotic disc, inhibitory zone diameter ([7]; 10 μg/disc): 16 mm; Standard antibiotic disc, inhibitory zone diameter ([8]; 10 μg/disc): 11 mm; Standard antibiotic disc, inhibitory zone diameter ([1]; 10 μg/disc): 23 mm; Standard antibiotic disc, inhibitory zone diameter ([2]; 10 μg/disc): 24 mm; MIC of standard antibiotics [9]: 0.5 µg/mL; MIC of standard antibiotics [10]: 2.5 µg/mL; MIC of standard antibiotics [3]: 11.4 µg/mL; MIC of standard antibiotics [4]: 1.2 µg/mL |
